Assay results from patent US11555026B2, “AHR inhibitors and uses thereof” (Ikena Oncology, Inc., priority 2017, dated 2023).

molecular target: T1, AHR (UniProt P35869); experiment: DRE-Luciferase Reporter Assay (Example 1A); type: cell-based; parameters: IC50; conditions: concentration which inhibits half of the luciferase activity induced by an AHR activating ligand; murine (Hepa1-6, Hepa-1c1c7) or human (HepG2) DRE-luciferase reporter cells, cell line used not stated
T1 sequence (P35869 1-848): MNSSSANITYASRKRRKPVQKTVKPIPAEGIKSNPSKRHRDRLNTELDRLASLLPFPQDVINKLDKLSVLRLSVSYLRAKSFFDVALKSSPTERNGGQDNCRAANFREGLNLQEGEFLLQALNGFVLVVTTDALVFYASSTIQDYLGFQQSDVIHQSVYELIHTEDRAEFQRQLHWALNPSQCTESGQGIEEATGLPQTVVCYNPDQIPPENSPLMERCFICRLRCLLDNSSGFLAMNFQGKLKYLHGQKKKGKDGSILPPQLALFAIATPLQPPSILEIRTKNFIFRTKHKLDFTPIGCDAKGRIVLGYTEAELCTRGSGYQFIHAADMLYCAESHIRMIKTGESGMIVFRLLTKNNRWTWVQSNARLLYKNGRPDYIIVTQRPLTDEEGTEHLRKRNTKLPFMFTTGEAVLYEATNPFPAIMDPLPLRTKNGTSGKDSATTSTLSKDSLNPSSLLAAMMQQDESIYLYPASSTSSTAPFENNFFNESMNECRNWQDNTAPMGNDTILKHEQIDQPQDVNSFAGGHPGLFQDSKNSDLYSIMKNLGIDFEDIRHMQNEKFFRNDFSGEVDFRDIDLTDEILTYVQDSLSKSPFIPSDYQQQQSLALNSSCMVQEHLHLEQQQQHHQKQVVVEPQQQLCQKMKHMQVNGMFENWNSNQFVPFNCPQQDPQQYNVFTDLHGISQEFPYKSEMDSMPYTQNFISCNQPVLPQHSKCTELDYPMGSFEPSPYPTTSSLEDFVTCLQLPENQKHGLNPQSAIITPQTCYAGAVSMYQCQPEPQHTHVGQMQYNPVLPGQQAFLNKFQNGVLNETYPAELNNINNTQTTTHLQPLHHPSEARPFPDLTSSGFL
Procedure: AHR binds to Dioxin Responsive Elements (DRE) upstream of genes that it activates. One measure of AHR activity is activation of a reporter gene, such as luciferase, downstream of one or multiple DRE elements. Luciferase activity will reflect activation and inhibition of AHR in the cells expressing his reporter.
Murine Hepa1-6 or Hepa-1c1c7 or other murine cell line with a DRE-luciferase reporter either stably or transiently transfected were plated in media in plates (96-well, 384-well or other plates) and incubated overnight at 37° C. in a CO2 incubator. Likewise, human HepG2 or other human cell line with a DRE-luciferase reporter either stably or transiently transfected were plated in media in plates (96-well, 384-well or other plates) and incubated overnight at 37° C. in a CO2 incubator.
The next day, an AHR activating ligand, such as TCDD, kynurenine, ITE (2-(1H-indole-3-ylcarbonyl)-4-thiazolecarboxylic methyl ester), VAF347, BNF (beta-naphthoflavone), FICZ (6-formylindolo(3,2-b) carbazole or other AHR ligands, was added with or without AHR antagonist.
Cells were incubated for 4, 15 or 24 hours or another time point and then lysed for determination of luciferase activity as a read-out of the AHR activation or inhibition. Luciferase was measured with a commercial kit such as the Promega Luciferase kit or any kit or reagents that provide the luciferin substrate for measuring luciferase activity. The level of luciferase with only activating ligand added was the maximum signal while the luciferase with no ligand was the minimum signal. IC50 values were determined as the concentration which inhibits half of the luciferase activity.

Compound	IC50 [µM]
Cc1cc(C2OC2c2ccccc2)ccc1NC(=O)c1ccnn1C (centres unmarked) [I-21]	> 1.5
Cc1cc(-c2ccc3ccccc3c2)ccc1NC(=O)c1ccnn1C [I-32]	> 1.5
Cc1cc(/C=C/c2cccnc2C)ccc1NC(=O)c1ccnn1C [I-19]	> 1.5
Cc1cc(C(=O)n2ccc3ccccc32)ccc1NC(=O)c1ccnn1C [I-4]	> 1.5
Cc1ccccc1CNc1ccc(NC(=O)c2ccnn2C)c(C)c1 [I-10, 1-methyl-N-(2-methyl-4-((2-methylbenzyl)amino)phenyl)-1H-pyrazole-5-carboxamide]	> 1.5
Cc1cc(NC(=O)c2ccccc2C)ccc1NC(=O)c1ccnn1C [I-9, 1-methyl-N-(2-methyl-4-(2-methylbenzamido)phenyl)-1H-pyrazole-5-carboxamide]	> 1.5
Cc1ccccc1/C=C\c1ccc(NC(=O)c2ccnn2C)c(C)c1 [I-7, (Z)-1-methyl-N-(2-methyl-4-(2-methylstyryl)phenyl)-1H-pyrazole-5-carboxamide]	> 1.5
Cc1ccccc1NCc1ccc(NC(=O)c2ccnn2C)c(C)c1 [I-11, 1-methyl-N-(2-methyl-4-((o-tolylamino)methyl)phenyl)-1H-pyrazole-5-carboxamide]	> 1.5
Cc1cc(C(=O)N2CCCc3ccccc32)ccc1NC(=O)c1ccnn1C [I-1]	> 1.5
Cc1cc(C(=N)Nc2ncccc2C)ccc1NC(=O)c1ccnn1C [I-13]	> 1.5
Cc1ccccc1NC(=O)c1ccc(NC(=O)c2ccnn2C)c(C)c1 [I-8, 1-methyl-N-(2-methyl-4-(o-tolylcarbamoyl)phenyl)-1H-pyrazole-5-carboxamide]	> 1.5
Cc1cc(C(=O)Nc2ncccc2C)ccc1NC(=O)c1ccnn1C [I-3]	> 1.5
Cc1ccccc1/C=C/c1ccc(NC(=O)c2cncn2C)c(C)c1 [I-37]	> 1.5
Cc1cc(C(=O)N2CCc3ccccc32)ccc1NC(=O)c1ccnn1C [I-2]	> 1.5
Cc1cc(-c2cc3ccccc3cn2)ccc1NC(=O)c1ccnn1C [I-31]	> 1.5
Cc1ccccc1/C=C/c1ccc(NC(=O)c2ccn[nH]2)c(C)c1 [I-36]	> 1.5
Cc1ccccc1/N=N/c1ccc(NC(=O)c2ccccn2)c(C)c1 [I-14]	> 1.5
Cc1ccccc1CCc1ccc(NC(=O)c2ccnn2C)c(C)c1 [I-6, 1-methyl-N-(2-methyl-4-(2-methylphenethyl)phenyl)-1H-pyrazole-5-carboxamide]	> 1.5
Cc1ccccc1-c1ccc2cc(NC(=O)c3ccnn3C)ccc2n1 [I-30]	> 1.5
Cc1cc(N)ccc1NC(=O)c1ccnn1C [I-16]	> 1.5

Next, values leading:

IC50 [µM]	Compound
> 1.5	Cc1cc(/N=N/c2ncccc2C)ccc1NC(=O)c1ccnn1C [I-26]
< 0.5	Cn1nccc1C(=O)Nc1ccc2nc(-c3ccccc3)ccc2c1 [I-22, 2-Methyl-N-(2-phenyl-6-quinolyl)pyrazole-3-carboxamide]
< 0.5	Cc1cc(C2OC2c2ccccc2C)ccc1NC(=O)c1ccnn1C (centres unmarked) [I-23, 2-Methyl-N-[2-methyl-4-[3-(o-tolyl)oxiran-2-yl]phenyl]pyrazole-3-carboxamide]
1 to 1.5	Cc1ccccc1NCc1ccc(NC(=O)c2ccnn2C)c(C)n1 [I-15, 2-Methyl-N-[2-methyl-6-[(2-methylanilino)methyl]-3-pyridyl]pyrazole-3-carboxamide]
< 0.5	Cc1ccccc1/N=N/c1ccc(C(=O)Nc2ccnn2C)c(C)c1 [I-25, 2-Methyl-N-(2-methylpyrazol-3-yl)-4-[(E)-o-tolylazo]benzamide]
0.5 to 1	Cc1ccccc1NC(=O)c1ccc(NC(=O)c2ccnn2C)c(C)n1 [I-12, 6-Methyl-5-(1-methyl-1H-pyrazole-5-carboxamido)-N-(o-tolyl)picolinamide]
< 0.5	Cc1ccccc1/N=N/c1ccc(NC(=O)c2ccnn2C)cc1C [I-24, 2-Methyl-N-[3-methyl-4-[(E)-o-tolylazo]phenyl]pyrazole-3-carboxamide]
< 0.5	Cc1ccccc1/C=C/c1ccc(NC(=O)c2ccnn2C)c(C)c1 [I-5, (E)-1-methyl-N-(2-methyl-4-(2-methylstyryl)phenyl)-1H-pyrazole-5-carboxamide]
< 0.5	Cc1cc(COc2ccccc2C)ccc1NC(=O)c1ccnn1C [I-18, 2-Methyl-N-[2-methyl-4-[(2-methylphenoxy)methyl]phenyl]pyrazole-3-carboxamide]
0.5 to 1	Cc1ccccc1/C=C/c1ccc(NC(=O)c2ccnn2C)cc1 [I-27, 2-Methyl-N-[4-[(E)-2-(o-tolyl)vinyl]phenyl]pyrazole-3-carboxamide]
< 0.5	Cc1ccccc1C#Cc1ccc(NC(=O)c2ccnn2C)c(C)c1 [I-29, 2-Methyl-N-[2-methyl-4-[2-(o-tolyl)ethynyl]phenyl]pyrazole-3-carboxamide]
< 0.5	Cc1cc(/C=C/c2ccccc2)ccc1NC(=O)c1ccnn1C [I-20, 2-Methyl-N-[2-methyl-4-[(E)-styryl]phenyl]pyrazole-3-carboxamide]
